What all share (assay type): cell-based
Assay [1] has as its target T1, (L1.35P, I3.24F, W4.61G)-MRGPRX1 (Homo sapiens, UniProt Q96LB2, I94F/L30P/W158G).
T1 construct: host or cells: COS-7
Put plainly: Intracellular Ca2+ mobilization in COS-7 cells, Gαq16-fused receptor, (L1.35P, I3.24F, W4.61G)-MRGPRX1. The text has this: (§1) ORFs of MRGPRX1 and MRGPRX2 purchased from OriGene and Mm-MRGPRX1 synthesized in Genscript were C-terminally fused with the human Gαq16 protein as described previously ([23]). Briefly, the human Gαq16 ORF clone (OriGene) was amplified and ligated into the XbaI site of a pcDNA6 plasmid (Invitrogen). Then, MRGPRX1 and MRGPRX2 were subcloned (Table S1) into the NotI–XbaI site of the Gαq16-ligated pcDNA6 plasmids. MRGPRX1 and two mutants were constructed using the PrimeSTAR Mutagenesis Basal Kit with mutation oligos (Table S1).
(§2) COS-7 cells were purchased from American Type Culture Collection and cultured in Dulbecco's modified Eagle's medium (Nacalai Tesque) supplemented with 10% fetalbovine serum (Sigma) and maintained at 37°C under 5% CO2. Intracellular Ca^2+ mobilization was measured as previously described ([42], [43]). In brief, 5 × 10^5 COS-7 cells were spread on a 60-mm dish 1 day before transfection. About 10 μg of GPCR expression vector were transfected into the cells using Lipofectamine 2000 (Thermo Fisher Scientific) according to the manufacturer’s instructions. After the 24-h incubation, 6 × 10^4 cells per well were respread on a 96-well plate for the following assay. Each MRGPRX mutant fused with human Gαq16 for expression at the cell membrane was confirmed by immunostaining using the anti-Gαq16 antibody (Ori Gene TA318890) (Fig. S5). SP (PEPTIDE […]) and BAM8–22 (Tocris Bioscience) were used for the assays. Real-time Ca^2+ mobilization of Gαq16-fused MRGPRX1/2 was measured using a Ca5 kit (Molecular Devices) and FlexStation III according to the manufacturer’s instructions. The calcium accumulation data were analyzed using Prism, version 6 (GraphPad) and found to fit a sigmoidal concentration–response curve, and the means ± SEMs of EC50 were calculated.

The target in assay [2] is (I3.24F, W4.61G)-Mm-MRGPRX1 (Macaca mulatta, UniProt A0A5F7ZSN8, I94F/W158G). Briefly: Intracellular Ca2+ mobilization in COS-7 cells, Gαq16-fused receptor, (I3.24F, W4.61G)-Mm-MRGPRX1. To be noted: SP.
Source text: as §1
(§3) COS-7 cells were purchased from American Type Culture Collection and cultured in Dulbecco's modified Eagle's medium (Nacalai Tesque) supplemented with 10% fetalbovine serum (Sigma) and maintained at 37°C under 5% CO2. Intracellular Ca^2+ mobilization was measured as previously described ([42], [43]). In brief, 5 × 10^5 COS-7 cells were spread on a 60-mm dish 1 day before transfection. […] Real-time Ca^2+ mobilization of Gαq16-fused MRGPRX1/2 was measured using a Ca5 kit (Molecular Devices) and FlexStation III according to the manufacturer’s instructions. The calcium accumulation data were analyzed using Prism, version 6 (GraphPad) and found to fit a sigmoidal concentration–response curve, and the means ± SEMs of EC50 were calculated.
(Calcium flux is commonly read through the fluorescence of an indicator in the cells.)

The target of the next assay is T2, (I3.24F, W4.61G)-MRGPRX1 (Homo sapiens, UniProt Q96LB2, I94F/W158G).
T2 construct: host or cells: COS-7
Briefly: Intracellular Ca2+ mobilization in COS-7 cells, Gαq16-fused receptor, (I3.24F, W4.61G)-MRGPRX1.
Source text: as §1, §2

In a further assay the target is T3, Mm-MRGPRX1 WT (Macaca mulatta, UniProt A0A5F7ZSN8).
T3 construct: host or cells: COS-7
Put plainly: Intracellular Ca2+ mobilization in COS-7 cells, Gαq16-fused receptor, intact Mm-MRGPRX1. The settings on record: BAM8–22.
Source text: as §1, §3

Another assay concerns the target T4, (L1.35P)-MRGPRX1 (Homo sapiens, UniProt Q96LB2, L30P).
T4 construct: host or cells: COS-7
Briefly: Intracellular Ca2+ mobilization in COS-7 cells, Gαq16-fused receptor, (L1.35P)-MRGPRX1.
Source text: as §1, §3

Another assay addresses T5, MRGPRX1 WT (Homo sapiens, UniProt Q96LB2).
T5 construct: host or cells: COS-7
Briefly: Intracellular Ca2+ mobilization in COS-7 cells, Gαq16-fused receptor, wildtype MRGPRX1. To be noted: BAM8–22.
Source text: as §1, §3

For a further assay, the target named is T6, (P1.35L)-MRGPRX2 (Homo sapiens, UniProt Q96LB1, P33L).
T6 construct: host or cells: COS-7
T6 sequence (Q96LB1 1-330 P33L): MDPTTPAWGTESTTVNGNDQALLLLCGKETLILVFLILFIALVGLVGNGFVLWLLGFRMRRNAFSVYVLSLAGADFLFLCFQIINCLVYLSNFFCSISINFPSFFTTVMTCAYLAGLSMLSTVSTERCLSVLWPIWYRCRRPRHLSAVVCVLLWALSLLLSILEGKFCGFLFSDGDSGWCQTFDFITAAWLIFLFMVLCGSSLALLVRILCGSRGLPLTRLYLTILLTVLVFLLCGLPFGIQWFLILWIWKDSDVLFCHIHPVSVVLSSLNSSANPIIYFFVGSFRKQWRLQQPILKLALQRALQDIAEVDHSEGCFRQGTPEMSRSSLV
Briefly: Intracellular Ca2+ mobilization in COS-7 cells, Gαq16-fused receptor, (P1.35L)-MRGPRX2. To be noted: COS-7, Ca2+ mobilization.

The next assay has as its target T7, (S1.43A)-MRGPRX1 (Homo sapiens, UniProt Q96LB2, S38A).
T7 construct: host or cells: COS-7
Briefly: Intracellular Ca2+ mobilization in COS-7 cells, Gαq16-fused receptor, (S1.43A)-MRGPRX1. The settings on record: BAM8–22.
Source text: as §1, §3

Another assay deals with (F1.35L)-Mm-MRGPRX1 (Macaca mulatta, UniProt A0A5F7ZSN8, F30L). Put plainly: Intracellular Ca2+ mobilization in COS-7 cells, Gαq16-fused receptor, (F1.35L)-Mm-MRGPRX1. To be noted: BAM8–22; COS-7, Ca2+ mobilization; mean ± standard error of three replicate analyses; read-out: Maximal response.
Source text: as §1, §3

Setting [3] is: COS-7, SP, compared with intact MRGPRX2, mean ± standard error of three replicate analyses, read-out: Maximal response (Emax).
Where [4] appears, read: SP, COS-7, Gαq16-fused, Ca2+ mobilization, three replicate analyses.
Setting [5] is: COS-7, Ca2+ mobilization, mean ± standard error of three replicate analyses, read-out: Maximal response.
Where [6] appears, read: COS-7, Gαq16-fused, Ca2+ mobilization, three replicate analyses.

“And” between values parts separate entries of the source, which are not always exact repeats. Identical values can stand only once. No end group written: not given here.

T2 sequence (Q96LB2 whole entry I94F/W158G): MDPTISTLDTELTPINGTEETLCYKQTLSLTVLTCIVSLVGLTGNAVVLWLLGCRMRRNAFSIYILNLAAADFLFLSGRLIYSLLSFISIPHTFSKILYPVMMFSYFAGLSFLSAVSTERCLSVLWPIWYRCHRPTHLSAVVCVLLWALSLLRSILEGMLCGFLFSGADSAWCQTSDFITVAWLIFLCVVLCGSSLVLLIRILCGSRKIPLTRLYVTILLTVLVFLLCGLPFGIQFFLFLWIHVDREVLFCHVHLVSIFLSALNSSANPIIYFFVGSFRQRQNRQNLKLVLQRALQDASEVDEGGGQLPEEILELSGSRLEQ
Chain of (I3.24F, W4.61G)-Mm-MRGPRX1 (A0A5F7ZSN8 1-322 I94F/W158G): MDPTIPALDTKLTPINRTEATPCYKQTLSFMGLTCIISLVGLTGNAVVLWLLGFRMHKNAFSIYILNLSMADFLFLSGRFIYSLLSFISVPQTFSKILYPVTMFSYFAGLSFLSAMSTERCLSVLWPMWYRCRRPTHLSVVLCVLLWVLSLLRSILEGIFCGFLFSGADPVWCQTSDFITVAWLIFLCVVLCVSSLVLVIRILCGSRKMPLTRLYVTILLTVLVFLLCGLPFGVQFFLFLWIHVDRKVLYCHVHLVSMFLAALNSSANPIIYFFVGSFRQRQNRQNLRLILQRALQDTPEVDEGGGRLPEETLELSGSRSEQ
T1 sequence (Q96LB2 whole entry L30P/I94F/W158G): as the sequence (Q96LB2 whole entry I94F/W158G) above, with L30P counted along it
T3 sequence (A0A5F7ZSN8 1-322): as the sequence (A0A5F7ZSN8 1-322 I94F/W158G) above, with F94I, G158W counted along it
T5 sequence (Q96LB2 whole entry): as the sequence (Q96LB2 whole entry I94F/W158G) above, with F94I, G158W counted along it
T7 sequence (Q96LB2 whole entry S38A): as the sequence (Q96LB2 whole entry I94F/W158G) above, with S38A, F94I, G158W counted along it
T4 sequence (Q96LB2 whole entry L30P): as the sequence (Q96LB2 whole entry I94F/W158G) above, with L30P, F94I, G158W counted along it
Chain of (F1.35L)-Mm-MRGPRX1 (A0A5F7ZSN8 1-322 F30L): as the sequence (A0A5F7ZSN8 1-322 I94F/W158G) above, with F30L, F94I, G158W counted along it
Experimental for (P1.35L)-MRGPRX2: COS-7 cells were purchased from American Type Culture Collection and cultured in Dulbecco's modified Eagle's medium (Nacalai Tesque) supplemented with 10% fetalbovine serum (Sigma) and maintained at 37°C under 5% CO2. Intracellular Ca^2+ mobilization was measured as previously described ([42], [43]). In brief, 5 × 10^5 COS-7 cells were spread on a 60-mm dish 1 day before transfection. About 10 μg of GPCR expression vector were transfected into the cells using Lipofectamine 2000 (Thermo Fisher Scientific) according to the manufacturer’s instructions. After the 24-h incubation, 6 × 10^4 cells per well were respread on a 96-well plate for the following assay. […] Real-time Ca^2+ mobilization of Gαq16-fused MRGPRX1/2 was measured using a Ca5 kit (Molecular Devices) and FlexStation III according to the manufacturer’s instructions. The calcium accumulation data were analyzed using Prism, version 6 (GraphPad) and found to fit a sigmoidal concentration–response curve, and the means ± SEMs of EC50 were calculated.

What is called EC50 is the concentration that produces a half-maximal response. Higher therefore signals weaker potency. For `CSCC[C@H](NC(=O)[C@H](CC(C)C)NC(=O)CNC(=O)[C@H](Cc1ccccc1)NC(=O)[C@H](Cc1ccccc1)NC(=O)[C@H](CCC(N)=O)NC(=O)[C@H](CCC(N)=O)NC(=O)[C@@H]1CCCN1C(=O)[C@H](CCCCN)NC(=O)[C@@H]1CCCN1C(=O)[C@@H](N)CCCNC(=N)N)C(N)=O` [SP, substance P], the “EC50 compared with MRGPRX2-SP (in words)” value is listed as “comparable to that of MRGPRX2-SP” in [1] (COS-7, Ca2+ mobilization) and “comparable to that of MRGPRX2-SP” at (I3.24F, W4.61G)-MRGPRX1 (COS-7, Ca2+ mobilization). Moreover, the Emax came out at 39.5 ± 3% in assay [1] (setting [3]); 100 ± 5.28% in assay [2] (setting [5]); 42.1 ± 2.28% at (I3.24F, W4.61G)-MRGPRX1 (setting [3]). For the same compound, the concentration for a half-maximal effect (EC50) in assay [1] (setting [4]) was 1.66 µM; in assay [2] (setting [6]), 0.2 µM and 0.69 µM; at (I3.24F, W4.61G)-MRGPRX1 (setting [4]), 2.24 µM.
As to “VGRPEWWMDYQKRYG [BAM8–22, bovine adrenal medulla peptide 8–22]”, the Emax was 66.5 ± 2.91% on Mm-MRGPRX1 WT (setting [5]), 100 ± 7.78% on MRGPRX1 WT (setting [5]), 102 ± 9.64% at (S1.43A)-MRGPRX1 (setting [5]) and 100 ± 1.94% on (F1.35L)-Mm-MRGPRX1. The EC50 on Mm-MRGPRX1 WT (setting [6]) is 2.57 µM; on (L1.35P)-MRGPRX1 (BAM8–22, COS-7, Gαq16-fused, Ca2+ mobilization, three replicate analyses) it was 3.16 µM; on MRGPRX1 WT (setting [6]), 0.17 µM; on (S1.43A)-MRGPRX1 (setting [6]), 0.2 µM. The “Response to 3 μM BAM8–22, of that of wildtype MRGPRX1” value at (L1.35P)-MRGPRX1 (3 μM BAM8–22, COS-7, Ca2+ mobilization) is 48.48 ± 1.08%. Besides, the “Response to 3 μM BAM8–22” value on (P1.35L)-MRGPRX2 was 30.23 ± 1.08%.

The record behind these values is article PMC11910321, “Evolutionary scenarios for the specific recognition of nonhomologous endogenous peptides by G protein–coupled receptor paralogs” (The Journal of Biological Chemistry, 2024).
